Among the data in patent publication US9884063B2, “Amido-substituted azole compounds” (Bayer Pharma Aktiengesellschaft, priority 2014, dated 2018) are IC50 values, retold here.

The test system of test [1] is HEK293 FOP control reporter cell line. As to the kind of experiment: HEK293 FOP Assay (FOP control vector luciferase reporter). The test is classed as cell-based. As to conditions: Homo sapiens. Put shortly:
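Compound series 50 μM to 15 nM, 3.16-fold steps, were diluted in CAFTY buffer (pH 7.4, 2 mM Ca2+, 0.01% BSA) and tested alongside the TOP reporter line. Human Wnt-3a was added at 2500–5 ng/ml in two-fold steps. The control HEK293 line stably holds an FOP vector whose TCF elements are randomized and non-functional.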

Test [2] deals with T1, TNKS1 (Homo sapiens, UniProt O95271).
T1 sequence (O95271 1-1327): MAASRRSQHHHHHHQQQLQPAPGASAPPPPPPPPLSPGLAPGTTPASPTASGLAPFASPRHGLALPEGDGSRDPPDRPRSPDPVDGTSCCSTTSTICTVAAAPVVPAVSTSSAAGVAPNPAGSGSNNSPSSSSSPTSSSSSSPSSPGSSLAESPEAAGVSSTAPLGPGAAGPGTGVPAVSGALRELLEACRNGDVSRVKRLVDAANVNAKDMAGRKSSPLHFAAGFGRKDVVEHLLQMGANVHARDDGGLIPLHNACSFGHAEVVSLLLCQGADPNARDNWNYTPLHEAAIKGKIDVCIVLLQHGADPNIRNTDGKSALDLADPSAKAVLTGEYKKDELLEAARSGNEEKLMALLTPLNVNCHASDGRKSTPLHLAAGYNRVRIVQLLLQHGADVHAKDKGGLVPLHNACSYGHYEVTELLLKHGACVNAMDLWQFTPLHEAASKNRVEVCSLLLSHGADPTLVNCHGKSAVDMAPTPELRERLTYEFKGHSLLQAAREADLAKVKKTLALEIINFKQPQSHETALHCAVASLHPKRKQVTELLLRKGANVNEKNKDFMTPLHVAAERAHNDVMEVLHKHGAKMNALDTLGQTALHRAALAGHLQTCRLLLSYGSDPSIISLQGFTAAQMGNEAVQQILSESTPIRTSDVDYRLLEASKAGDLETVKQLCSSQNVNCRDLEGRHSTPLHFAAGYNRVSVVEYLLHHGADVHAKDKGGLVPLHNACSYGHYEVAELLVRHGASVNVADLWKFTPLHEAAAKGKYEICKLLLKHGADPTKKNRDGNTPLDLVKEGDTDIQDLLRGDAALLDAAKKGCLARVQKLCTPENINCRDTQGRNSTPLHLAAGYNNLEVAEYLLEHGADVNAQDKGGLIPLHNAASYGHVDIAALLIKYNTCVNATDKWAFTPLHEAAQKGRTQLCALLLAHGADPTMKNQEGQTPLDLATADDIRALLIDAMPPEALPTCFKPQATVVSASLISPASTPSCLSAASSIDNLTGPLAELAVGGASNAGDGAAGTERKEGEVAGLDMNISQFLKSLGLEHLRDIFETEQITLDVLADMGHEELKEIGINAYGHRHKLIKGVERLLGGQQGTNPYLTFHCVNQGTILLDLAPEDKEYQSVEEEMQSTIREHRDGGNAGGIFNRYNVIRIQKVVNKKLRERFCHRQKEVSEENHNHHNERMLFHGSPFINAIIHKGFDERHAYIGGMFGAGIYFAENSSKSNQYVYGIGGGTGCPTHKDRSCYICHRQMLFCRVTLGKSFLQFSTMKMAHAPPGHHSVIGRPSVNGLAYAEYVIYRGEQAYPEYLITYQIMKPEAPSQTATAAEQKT
As to the kind of experiment: Modified TNKS1 Assay 3 (BPS kit #80573, biotin-NAD+, 96 well). The test is classed as biochemical. As to conditions: human TNKS1, BPS kit #80573, 96 well. Put shortly:
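Chemiluminescent assay of TNKS1-catalysed ribosylation of a protein substrate with biotin-labelled NAD+, detected via streptavidin-HRP; run per kit protocol. Inhibition lowers the signal, and IC50 is the compound concentration halving the normalised readout.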

For test [3], the system named is wildtype Wnt signaling cascade. The experiment in a line: HEK293 TOP Assay (Super TopFlash luciferase reporter, Wnt-3a stimulated). The test is classed as cell-based. Particulars: Homo sapiens. Summed up:
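Compounds (50 μM down to 15 nM, 3.16-fold steps, in CAFTY buffer pH 7.4, 2 mM Ca2+, 0.01% BSA) tested in parallel on TOP and FOP HEK293 reporter lines to define selective wildtype Wnt inhibition. Pathway driven by recombinant human Wnt-3a applied at 2500–5 ng/ml in two-fold dilutions.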
On the technique in general: Reporter assays use an easily measured gene product as a stand-in for the process of interest.

The mark [4] stands for this setting: HEK293 FOP control reporter cell line, 16 hours incubation, compound dilution series 50 μM to 15 nM.
[5] abbreviates: HEK293, 16 h, HEK293 TOP reporter cell line, Wnt-3a at EC50, 16 hours incubation, compound dilution series 50 μM to 15 nM.
Where [6] appears, read: HEK293 FOP control reporter cells, 16 hours, luciferase, dilution series from 50 μM.
Where [7] appears, read: HEK293, 16 h, HEK293 TOP reporter cells, Wnt3a at EC50, 16 hours, luciferase.

The pIC50 is the negative decadic logarithm of the IC50, by convention in mol/L.

pIC50: −log10 of the molar value. Structures can show the parent of a compound that is named as a salt.

Regarding `CC1CCN(CCCNC(=O)c2nc[nH]c2C(=O)Nc2ccc(NC(=O)c3ccc(F)cc3Cl)cc2)CC1` [Example 400, N^5-{4-[(2-chloro-4-fluorobenzoyl)amino]phenyl}-N^4-[3-(4-methylpiperidin-1-yl)propyl]-1H-imidazole-4,5-dicarboxamide], the pIC50 was 4.89 in test [1] (setting [4]), 7.70 in test [2] and 6.44 in test [3] (setting [5]).
For `CC1CCCN(CCNC(=O)c2[nH]cnc2C(=O)Nc2ccc(NC(=O)c3ccccc3Cl)cc2)C1` (stereo not shown) [Example 210, N^4-{4-[(2-chlorobenzoyl)amino]phenyl}-N^5-[2-(3-methylpiperidin-1-yl)ethyl]-1H-imidazole-4,5-dicarboxamide] the same measures were 4.62, 7.70 and 6.89.
Consider `CNC(=O)c1nc[nH]c1C(=O)Nc1ccc(NC(=O)c2c(C)cc(C)cc2C)cc1` [Example 35, N^5-{4-[(mesitylcarbonyl)amino]phenyl}-N^4-methyl-1H-imidazole-4,5-dicarboxamide], for which the pIC50 in test [1] (setting [6]) was ≤ 4.30; in test [2] it was < 6.30; in test [3] (setting [5]), 6.12; in test [3] (setting [7]), 6.12.
On to `O=C(Nc1ccc(NC(=O)c2nc[nH]c2C(=O)NCCN2CCCC(F)(F)C2)cc1)c1ccc(F)cc1Cl` [Example 225, N^4-{4-[(2-chloro-4-fluorobenzoyl)amino]phenyl}-N^5-[2-(3,3-difluoropiperidin-1-yl)ethyl]-1H-imidazole-4,5-dicarboxamide], for which the negative-log IC50 (pIC50) in test [1] (setting [4]) is 4.36; in test [2] it was 6.74; in test [3] (setting [5]), 6.10.
In the same order, the values of `O=C(Nc1ccc(NC(=O)c2nc[nH]c2C(=O)NCCCN2CCCC2)cc1)c1ccc(F)cc1Cl` [Example 274, N^4-{4-[(2-chloro-4-fluorobenzoyl)amino]phenyl}-N^5-[3-(pyrrolidin-1-yl)propyl]-1H-imidazole-4,5-dicarboxamide] are 4.35, 8.00 and 6.54.
For the molecule `O=C(Nc1ccc(NC(=O)c2ocnc2C(=O)NCCN2CCCC(F)C2)cc1)c1ccc(F)cc1Cl` (stereo not shown) [Example 220, N^5-{4-[(2-chloro-4-fluorobenzoyl)amino]phenyl}-N^4-[2-(3-fluoropiperidin-1-yl)ethyl]-1,3-oxazole-4,5-dicarboxamide], the values for the pIC50 in test [1] (setting [4]), in test [2] and in test [3] (setting [5]) were 4.44, 6.59 and 6.16, respectively.
Consider `CNC(=O)c1nc[nH]c1C(=O)Nc1ccc(NC(=O)c2cccc(C)c2Cl)cc1` [Example 346, N^5-{4-[(2-chloro-3-methylbenzoyl)amino]phenyl}-N^4-methyl-1H-imidazole-4,5-dicarboxamide], for which the pIC50 in test [1] (setting [4]) was 4.59; in test [2] it was < 6.30; in test [3] (setting [5]) it was 6.05.
In the case of `O=C(Nc1ccc(NC(=O)c2[nH]cnc2C(=O)NCCN2CCCCC2)cc1F)c1ccccc1Cl` [Example 82, N^5-{4-[(2-chlorobenzoyl)amino]-3-fluorophenyl}-N^4-[2-(piperidin-1-yl)ethyl]-1H-imidazole-4,5-dicarboxamide], the results for the negative-log IC50 (pIC50) in test [1] (setting [4]), in test [2] and in test [3] (setting [5]) were 4.36, 8.00 and 7.05, respectively.
As for `CN1CCN(CCCNC(=O)c2nc[nH]c2C(=O)Nc2ccc(NC(=O)c3ccc(F)cc3Cl)cc2)CC1` [Example 392, N^5-{4-[(2-chloro-4-fluorobenzoyl)amino]phenyl}-N^4-[3-(4-methylpiperazin-1-yl)propyl]-1H-imidazole-4,5-dicarboxamide], the pIC50 was 4.74 in test [1] (setting [4]), 7.70 in test [2] and 6.80 in test [3] (setting [5]).
In the case of `O=C(Nc1ccc(NC(=O)c2[nH]cnc2C(=O)NCCC2CC2)cc1)c1cc(F)c(F)cc1Cl` [Example 49, N^5-{4-[(2-chloro-4,5-difluorobenzoyl)amino]phenyl}-N^4-(2-cyclopropylethyl)-1H-imidazole-4,5-dicarboxamide], the results for the pIC50 in test [1] (setting [4]), in test [2] and in test [3] (setting [5]) were 4.77, < 6.30 and 6.46, respectively.
Regarding `CNC(=O)c1nc[nH]c1C(=O)Nc1ccc(NC(=O)c2ccccc2Br)cc1` [Example 37, N^5-{4-[(2-bromobenzoyl)amino]phenyl}-N^4-methyl-1H-imidazole-4,5-dicarboxamide], the negative logarithm of the IC50 (pIC50) was 4.70 in test [1] (setting [4]); 4.70 in test [1] (setting [6]); 6.48 in test [2]; 6.48 in test [3] (setting [5]); 6.48 in test [3] (setting [7]).
As for `CCN1CCCC1CNC(=O)c1nc[nH]c1C(=O)Nc1ccc(NC(=O)c2ccc(F)cc2Cl)cc1` (stereo not shown) [Example 390, N^5-{4-[(2-chloro-4-fluorobenzoyl)amino]phenyl}-N^4-[(1-ethylpyrrolidin-2-yl)methyl]-1H-imidazole-4,5-dicarboxamide], the pIC50 is 4.74 in test [1] (setting [4]), 9.05 in test [2] and 6.60 in test [3] (setting [5]).
Turning to `O=C(Nc1ccc(NC(=O)c2nc[nH]c2C(=O)NCCN2CC[C@H](F)C2)cc1)c1ccc(F)cc1Cl` [Example 232, N^4-{4-[(2-chloro-4-fluorobenzoyl)amino]phenyl}-N^5-{2-[(3S)-3-fluoropyrrolidin-1-yl]ethyl}-1H-imidazole-4,5-dicarboxamide], the negative-log IC50 (pIC50) in test [1] (setting [4]) was 4.46; in test [2], 6.54; in test [3] (setting [5]), 6.66.
For `O=C(Nc1ccc(NC(=O)c2nc[nH]c2C(=O)NCC2CCCN2)cc1)c1ccc(F)cc1Cl` (stereo not shown) [Example 284, N^4-{4-[(2-chloro-4-fluorobenzoyl)amino]phenyl}-N^5-(pyrrolidin-2-ylmethyl)-1H-imidazole-4,5-dicarboxamide hydrochloride salt], the pIC50 in test [1] (HEK293, 16 h, HEK293 FOP control reporter cell line, 16 hours incubation, compound dilution series 50 μM to 15 nM) was 4.30; in test [2], 7.22; in test [3] (HEK293 TOP reporter cell line, Wnt-3a at EC50, 16 hours incubation, compound dilution series 50 μM to 15 nM), 6.17.
Regarding `COc1cc(NC(=O)c2[nH]cnc2C(=O)NCCN2CCCCC2)ccc1NC(=O)c1ccc(F)cc1Cl` [Example 97, N^5-{4-[(2-chloro-4-fluorobenzoyl)amino]-3-methoxyphenyl}-N^4-[2-(piperidin-1-yl)ethyl]-1H-imidazole-4,5-dicarboxamide], the pIC50 is 4.54 in test [1] (setting [4]), 7.05 in test [2] and 7.10 in test [3] (setting [5]).
On to `CNC(=O)c1[nH]c(C)nc1C(=O)Nc1ccc(NC(=O)c2ccc(F)cc2Cl)cc1` [Example 65, N^4-{4-[(2-chloro-4-fluorobenzoyl)amino]phenyl}-N^5,2-dimethyl-1H-imidazole-4,5-dicarboxamide], for which the pIC50 is 5.02 in test [1] (setting [4]), 6.80 in test [2] and 6.10 in test [3] (setting [5]).
As to `O=C(Nc1ccc(NC(=O)c2[nH]cnc2C(=O)NCCN2CCCCC2)cc1)c1ccc(F)cc1` [Example 33, N^4-{4-[(4-fluorobenzoyl)amino]phenyl}-N^5-[2-(piperidin-1-yl)ethyl]-1H-imidazole-4,5-dicarboxamide], the pIC50 is ≤ 4.30 in test [1] (setting [6]), < 6.30 in test [2], 6.35 in test [3] (setting [5]) and 6.20 in test [3] (setting [7]).
